From patent US20060217418A1, “Substituted alkyl amido piperidines” (priority 2001, published 2006)

What follows are molecules tested against T1, rat MCH1 receptor (Rattus norvegicus, UniProt P97639) (assay: Radioligand binding assay at cloned rat MCH1 receptor ([3H]Compound A)). Settings: cloned rat MCH1, Peakr293 cell membranes, 0.08 nM [3H]Compound A, 25° C., 90 minutes; read-out: Ki(MCH-1).
T1 construct: operatively linked to DNA encoding the rat MCH1 receptor so as to permit expression thereof; expressed in transfected cells; host or cells: Human embryonic kidney Peak rapid 293 (Peakr293) cells, transient calcium phosphate transfection, membranes
T1 sequence (P97639 whole entry): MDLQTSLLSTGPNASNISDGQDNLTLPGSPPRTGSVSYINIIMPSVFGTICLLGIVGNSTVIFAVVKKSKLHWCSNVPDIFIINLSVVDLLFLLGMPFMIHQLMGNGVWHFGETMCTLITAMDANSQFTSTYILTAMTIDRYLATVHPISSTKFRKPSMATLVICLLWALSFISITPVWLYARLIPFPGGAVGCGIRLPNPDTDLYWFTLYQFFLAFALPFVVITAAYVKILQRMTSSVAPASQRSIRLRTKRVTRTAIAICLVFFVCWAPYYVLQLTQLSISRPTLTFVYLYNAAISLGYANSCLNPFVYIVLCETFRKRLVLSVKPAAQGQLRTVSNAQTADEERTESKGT

Ki [nM] | Structure (SMILES)
77.4 | CC(C)OC(=O)Nc1cccc(C2CCN(CCCNC(=O)C(C)(C)c3ccc(Cl)cc3)CC2)c1 [Example 142, Isopropyl 3-[1-(3-{[2-(4-Chlorophenyl)-2-Methylpropanoyl]Amino}Propyl)-4-Piperidinyl]Phenyl carbamate]
54.5 | CC(=O)Nc1cccc(C2CCN(CCCNC(=O)C3(c4ccc(Cl)cc4)CC3)CC2)c1 [Example 71, N-(3-{4-[3-(ACETYLAMINO)PHENYL]-1-PIPERIDINYL}PROPYL)-1-(4-CHLORO PHENYL) CYCLOPROPANECARBOXAMIDE]
18.7 | CCCC(=O)Nc1ccc(OC)c(C2CCN(CCCNC(=O)C(c3ccc(F)cc3)c3ccc(F)cc3)CC2)c1 [Example 26]
4.1 | Cc1ccc(NC(=O)C(C)C)cc1C1CCN(CCCNC(=O)C(c2ccc(Cl)cc2)c2ccc(Cl)cc2)CC1 [Example 52]
4.5 | CC(C)C(=O)Nc1ccc(F)c(C2CCN(CCCNC(=O)C3(c4ccc(F)cc4)CCCC3)CC2)c1 [Example 129]
4 | O=C(Nc1cccc(C2CCN(CCCNC(=O)C(c3ccccc3)(c3ccccc3)c3ccccc3)CC2)c1)C1CC1 [Example 114]
6.2 | CC(C)OC(=O)Nc1cccc(C2CCN(CCCNC(=O)C(c3ccc(Cl)cc3)c3ccc(Cl)cc3)CC2)c1 [Example 143, Isopropyl 3-[1-(3-{[bis(4-chlorophenyl)acetyl]amino}propyl)-4-piperidinyl]phenylcarbamate]
26.9 | Cc1ccc(C(C(=O)NCCCN2CCC(c3cccc(NC(=O)OC(C)C)c3)CC2)c2ccc(C)cc2)cc1 [Example 145, ISOPROPYL 3-[1-(3-{[BIS(4-METHYLPHENYL)ACETYL]AMINO}PROPYL)-4-PIPERIDINYL]PHENYLCARBAMATE]
24.4 | CC(C)C(=O)Nc1cccc(C2CCN(CCCNC(=O)C3(c4ccc(F)cc4)CCCC3)CC2)n1 [Example 66, 1-(4-FLUOROPHENYL)-N-(3-{4-[6-(ISOBUTYRYLAMINO)-2-pyridinyl]-piperidinyl}propyl) cyclopentanecarboxamide]
14.6 | Cc1ccc(NC(=O)C(C)C)cc1C1CCN(CCCNC(=O)[C@H](C)c2ccccc2)CC1 [Example 164, 2-methyl-N-{4-methyl-3-[1-(3-{[(2R)-2-phenylpropanoyl]amino}propyl)-4-piperidinyl]phenyl} propanamide]
71.6 | CC(C)C(=O)Nc1cccc(C2CCN(CCCNC(=O)C(Br)c3ccccc3)CC2)c1 (stereo not drawn) [Example 9, N-{3-[1-(3-{[BROMO(PHENYL)ACETYL]AMINO}PROPYL)-4-PIPERIDINYL] PHENYL}-2-METHYLPROPANAMIDE]
13.9 | O=C(Nc1cccc(C2CCN(CCCNC(=O)C3(c4ccc(Cl)cc4)CC3)CC2)c1)C1CC1 [Example 118]
4.9 | CCCC(=O)Nc1cc(C2CCN(CCCNC(=O)C(c3ccccc3)c3ccccc3)CC2)ccc1F [Example 65]
9.9 | CC(C)C(=O)Nc1cccc(C2CCN(CCCNC(=O)C3(c4ccc(Cl)cc4)CCCCC3)CC2)n1 [Example 67, 1-(4-CHLOROPHENYL)-N-(3-{4-[6-(ISOBUTYRYLAMINO)-2-PYRIDINYL]-1-PIPERIDINYL} PROPYL)CYCLOHEXANECARBOXAMIDE]
496 | Cc1c(NC(=O)C(C)C)cccc1C1CCN(CCCNC(=O)C(c2ccccc2)c2ccccc2)CC1 [Example 33]
6.4 | CCCC(=O)Nc1cccc(C2CCN(CCCNC(=O)C3(c4ccc(F)cc4)CCCCC3)CC2)c1 [Example 87, N-(3-{4-[3-(BUTYRYLAMINO)PHENYL]-1-PIPERIDINYL}PROPYL)-1-(4-FLUOROPHENYL) CYCLOHEXANECARBOXAMIDE]
90.5 | COc1ccc(NC(=O)C(C)C)cc1C1CCN(CCCNC(=O)C(c2ccccc2)c2ccccc2)CC1 [Example 20]
1.9 | CCCC(=O)Nc1cc(C2CCN(CCCNC(=O)C(c3ccc(Cl)cc3)c3ccc(Cl)cc3)CC2)ccc1F [Example 108]
1040 | CCSC(C(=O)NCCCN1CCC(c2cccc(NC(=O)C(C)C)c2)CC1)(c1ccccc1)c1ccccc1 [Example 16, N-{3-[1-(3{[(ETHYLSULFANYL)(DIPHENYL)ACETYL]AMINO}PROPYL)-4-PIPERIDINYL] PHENYL}-2-METHYLPROPANAMIDE]
70.7 | CCC(=O)Nc1cccc(C2CCN(CCCNC(=O)C(C)c3ccc(F)cc3)CC2)c1 (stereo not drawn) [Example 64, 2-(4-FLUOROPHENYL)-N-(3-{4-[3-PROPIONYLAMINO)PHENYL]-1-PIPERIDINYL} PROPYL) PROPANAMIDE]
31.7 | CCC(=O)Nc1cccc(C2CCN(CCCNC(=O)C3(c4ccc(Cl)cc4)CCCC3)CC2)c1 [Example 62, 1-(4-CHLOROPHENYL)-N-(3-{4-[3-PROPIONYLAMINO)PHENYL]-1-PIPERIDINYL} PROPYL)CYCLOPENTANECARBOXAMIDE]
0.5 | CCC(=O)Nc1cccc(C2CCN(CCCNC(=O)C(c3ccc(Cl)cc3)c3ccc(Cl)cc3)CC2)c1 [Example 57, N-{3-[1-(3-{[2,2-BIS(4-CHLOROPHENYL)ACETYL]AMINO}PROPYL)-4-PIPERIDINYL] PHENYL}PROPANAMIDE]
11.8 | CC(C)CC(=O)Nc1cccc(C2CCN(CCCNC(=O)C(c3ccccc3)c3ccccc3)CC2)c1 [Example 13]
5.9 | CC(=O)Nc1cccc(C2CCN(CCCNC(=O)C(C)(C)c3ccc(Cl)cc3)CC2)c1 [Example 79, N-(3-{4-[3-(ACETYLAMINO)PHENYL]-1-PIPERIDINYL}PROPYL)-2-(4-CHLORO PHENYL)-2-METHYLPROPANAMIDE]

Ki [nM] | Structure (SMILES)
32.2 | COC(C(=O)NCCCN1CCC(c2cccc(NC(=O)C(C)C)c2)CC1)c1ccc(Cl)c(Cl)c1 (stereo not drawn) [Example 39]
1.1 | CCCC(=O)Nc1cccc(C2CCN(CCCNC(=O)C(c3ccc(Cl)cc3)c3ccc(Cl)cc3)CC2)c1 [Example 53, N-{3-[1-(3-{[2,2-BIS(4-CHLOROPHENYL)ACETYL]AMINO}PROPYL)-4-PIPERIDINYL] PHENYL}BUTANAMIDE]
52.3 | CC(=O)Nc1cccc(C2CCN(CCCNC(=O)C3(c4ccc(F)cc4)CCCC3)CC2)c1 [Example 72, N-(3-{4-[3-(ACETYLAMINO)PHENYL]-1-PIPERIDINYL}PROPYL)-1-(4-FLUOROPHENYL) CYCLOPENTANECARBOXAMIDE]
0.9 | CCCC(=O)Nc1cc(C2CCN(CCCNC(=O)C(c3ccc(F)cc3)c3ccc(F)cc3)CC2)ccc1F [Example 104]
3.2 | Cc1ccc(NC(=O)C(C)C)cc1C1CCN(CCCNC(=O)C2(c3ccc(Cl)cc3)CCCC2)CC1 [Example 81]
0.4 | CC(=O)Nc1cccc(C2CCN(CCCNC(=O)C(c3ccc(F)cc3)c3ccc(F)cc3)CC2)c1 [Example 28, N-(3-{4-[3-(acetylamino)phenyl]-1-piperidinyl}propyl)-2,2-bis(4-fluorophenyl)acetamide]
23.5 | CC(=O)Nc1cccc(C2CCN(CCCNC(=O)C(C)c3ccc(Cl)cc3)CC2)c1 (stereo not drawn) [Example 95, N-(3-{4-[3-(ACETYLAMINO)PHENYL]-1-PIPERIDINYL}PROPYL)-2-(4-CHLOROPHENYL) PROPANAMIDE]
136 | CCCC(=O)Nc1ccc(OC)c(C2CCN(CCCNC(=O)C(c3ccccc3)c3ccccc3)CC2)c1 [Example 22]
8.8 | O=C(Nc1cccc(C2CCN(CCCNC(=O)C(c3ccc(F)cc3)c3ccc(F)cc3)CC2)c1)OCc1ccccc1 [Example 141, Benzyl 3-[1-(3-{[bis(4-fluorophenyl)acetyl]amino}propyl)-4-piperidinyl]phenylcarbamate]
10.8 | Cc1ccc(NC(=O)C(C)C)cc1C1CCN(CCCNC(=O)C2(c3ccc(Cl)cc3)CC2)CC1 [Example 89]
1.9 | CC(C)C(=O)Nc1cccc(C2CCN(CCCNC(=O)C(c3ccc(Cl)cc3)c3ccc(Cl)cc3)CC2)n1 [Example 50]
2.4 | Cc1ccc(NC(=O)C(C)C)cc1C1CCN(CCCNC(=O)C2(c3ccc(F)cc3Cl)CCCCC2)CC1 [Example 134]
23.4 | CC(C)(C)CC(=O)Nc1cccc(C2CCN(CCCNC(=O)C(c3ccccc3)c3ccccc3)CC2)c1 [Example 19]
2.2 | CC(C)C(=O)Nc1ccc(F)c(C2CCN(CCCNC(=O)C(c3ccc(Cl)cc3)c3ccc(Cl)cc3)CC2)c1 [Example 54]
0.6 | Cc1ccc(C(C(=O)NCCCN2CCC(c3cc(NC(=O)C(C)C)ccc3F)CC2)c2ccc(C)cc2)cc1 [Example 132]
2.5 | CC(C)C(=O)Nc1c(F)cc(F)c(C2CCN(CCCNC(=O)C(c3ccc(F)cc3)c3ccc(F)cc3)CC2)c1F [Example 173, N-{3-[1-(3-{[bis(4-fluorophenyl)acetyl]amino}propyl)-4-piperidinyl]-2,4,6-trifluorophenyl}-2-methylpropanamide]
13.7 | CC(C)C(=O)Nc1cccc(C2CCN(CCCNC(=O)C3(c4ccc(Cl)cc4)CCC3)CC2)c1 [Example 43, 1-(4-CHLOROPHENYL)-N-(3-{4-[3-(ISOBUTYRYLAMINO)PHENYL]-1-PIPERIDINYL} PROPYL)CYCLOBUTANECARBOXAMIDE]
180 | O=C(Nc1cccc(C2CCN(CCCNC(=O)C(c3ccccc3)c3ccccc3)CC2)c1)OCc1ccccc1 [Example 140, Benzyl 3-(1-{3-[(Diphenylacetyl)Amino]Propyl}-4-Piperidinyl)Phenylcarbamate]
7.9 | CCC(=O)Nc1cccc(C2CCN(CCCNC(=O)C(C)(C)c3ccc(Cl)cc3)CC2)c1 [Example 7]
34.3 | CC(=O)Nc1cccc(C2CCN(CCCNC(=O)C3(c4ccc(Cl)cc4)CCC3)CC2)c1 [Example 74, N-(3-{4-[3-(ACETYLAMINO)PHENYL]-1-PIPERIDINYL}PROPYL)-1-(4-CHLOROPHENYL) CYCLOBUTANECARBOXAMIDE]
13.1 | COc1ccc(NC(=O)C(C)C)cc1C1CCN(CCCNC(=O)C(c2ccc(F)cc2)c2ccc(F)cc2)CC1 [Example 23]
0.3 | CC(=O)Nc1cccc(C2CCN(CCCNC(=O)C(c3ccc(Cl)cc3)c3ccc(Cl)cc3)CC2)c1 [Example 55]
50.4 | CCCC(=O)Nc1cc(C2CCN(CCCNC(=O)C(C)(C)c3ccc(Cl)cc3)CC2)ccc1F [Example 110]
115 | Nc1cccc(C2CCN(CCCNC(=O)C(c3ccccc3)c3ccccc3)CC2)c1 [Example 152]
